According to patent US12297295B2, “Peptide for treating cancer” (Saint Leo University, priority 2019, dated 2025):
Where no end group is shown, it is not given here.

How the values were obtained:
[1] = tested on: SVG p12 immortalized astroglia cells
Description: (§1) IC50 values were calculated from obtained equations that describe cell viability as a function of peptide concentration.

[2] = tested on: U-2 OS osteosarcoma cancer cells
Description: as §1

[3] = tested on: HLF normal primary lung fibroblasts
Description: The effect of peptide 7α of viability of HLF normal primary lung fibroblasts was studied. HLF normal primary lung fibroblasts (ATCC #PCS-201-013) were transfected with 1.25-10 μM peptide 7α for 3.5 hrs, incubated in a complete media for a duration of two doubling times, and assessed for viability by using a CCK-8 colorimetric assay (Dojindo Molecular Technologies, Inc.).
The effect of peptide 7MM of viability of normal lung cells was studied. HLF normal primary lung fibroblasts (ATCC #PC S-201-013) were transfected with 1.25-10 μM peptide 7MM for 3.5 hrs, incubated in a complete media for a duration of two doubling times, and assessed for viability by using a CCK-8 colorimetric assay (Dojindo Molecular Technologies, Inc.).
as §1

CMG helicase = target: T1, CMG helicase (Xenopus laevis, UniProt Q91876); assay: S phase arrested Xenopus egg extracts, chromatin RPA Western blot as readout for DNA helicase activity; type: biochemical; conditions: 250 μM peptide, 90 min incubation
T1 construct: from tissue; host or cells: S phase arrested Xenopus egg extracts (endogenous proteins on chromatin)
Description: The peptide of SEQ ID NO: 1 was synthesized using solid-phase synthesis. The product was purified using HPLC to a purity of about 99%. 250 μM of peptide Ex7 ([…]) (SEQ ID NO: 8), peptide 7N (circularized—KGEVLQMEDDLV) (SEQ ID NO: 9), peptide 7M (ISFQLMLCVLDYF) (SEQ ID NO: 1), or peptide 7C (IKLSPPMLLKEPYK) (SEQ ID NO: 10) were incubated in S phase arrested Xenopus egg extracts. Following a 90 min incubation, chromatin was isolated and probed by Western blotting for RPA protein as a readout for DNA helicase activity. Additionally, peptide 7MN (ISFQLML) (SEQ ID NO: 5), peptide 7MM (QLMLCVL) (SEQ ID NO: 2), and peptide 7MC (LCVLDYF) (SEQ ID NO: 6) were tested.
250 μM of each of peptides 7α (DLVISFQLMLCVLDYFIK) (SEQ ID NO: 14), 7α-ln (LVISFQLMLCVLDYFIK) (SEQ ID NO: 22), 7α-2n (VISFQLMLCVLDYFIK) (SEQ ID NO: 23), 7α-3n (ISFQLMLCVLDYFIK) (SEQ ID NO: 24), 7α-4n (SFQLMLCVLDYFIK) (SEQ ID NO: 25), 7α-5n (FQLMLCVLDYFIK) (SEQ ID NO: 26), 7α-6n (QLMLCVLDYFIK) (SEQ ID NO: 27), 7α-7n (LMLCVLDYFIK) (SEQ ID NO: 28), 7α-17c (DLVISFQLMLCVLDYF) (SEQ ID NO: 29), 7α-16c (DLVISFQLMLCVLDY) (SEQ ID NO: 30), 7α-15c (DVISFQLMLCVLD) (SEQ ID NO: 31), 7α-14c (DVISFQLMLCVL) (SEQ ID NO: 32), 7α-11c (DVISFQLML) (SEQ ID NO: 33) was incubated in S phase arrested Xenopus egg extracts. Following a 90 min incubation, chromatin was isolated and probed by Western blotting for RPA protein as a readout for DNA helicase activity.

[4] = tested on: THLE-3 immortalized normal liver cells
Description: as §1

[5] = tested on: PC3 prostate cancer cells
Description: The effect of peptide 7α of viability of prostate cancer cells was studied. PC3 prostate cancer cells (ATCC #CRL-1435) were transfected with 1.25-10 μM peptide 7α for 3.5 hrs, incubated in a complete media for a duration of two doubling times, and assessed for viability by using a CCK-8 colorimetric assay (Dojindo Molecular Technologies, Inc.).
The effect of peptide 7MM of viability of prostate cancer cells was studied. PC3 prostate cancer cells (ATCC #CRL-1435) were transfected with 1.25-10 μM peptide 7MM for 3.5 hrs, incubated in a complete media for a duration of two doubling times, and assessed for viability by using a CCK-8 colorimetric assay (Dojindo Molecular Technologies, Inc.).
as §1

[6] = tested on: HT1080 fibrosarcoma cancer cells
Description: as §1

[7] = tested on: HCT-116 colorectal cancer cells
Description: The effect of peptide 7MM of viability of colorectal cancer cells was studied. HCT-116 colorectal cancer cells (ATCC #CCL-247) were transfected with 1.25-10 μM peptide 7MM for 3.5 hrs, incubated in a complete media for a duration of two doubling times, and assessed for viability by using a CCK-8 colorimetric assay (Dojindo Molecular Technologies, Inc.).
as §1

[8] = tested on: PANC-1 pancreatic cancer cells
Description: The effect of Peptides 7M and 7MM on PANC-1 pancreatic cancer cells (ATCC #CRL-1469) was studied. Pierce Protein Transfection reagent (Thermo Scientific, 89850) was used to deliver peptide to the cultured cells. PANC-1 pancreatic cancer cells were transfected with 0.625-10 μM Peptide 7M or Peptide 7MM for 3.5 hrs, incubated in a complete media for a duration of two doubling times (48 hours), and assessed for viability by using a CCK-8 colorimetric assay.
The effect of peptide 7α of viability of pancreatic cancer cells was studied. PANC-1 pancreatic cancer cells (ATCC #CRL-1469) were transfected with 1.25-10 μM peptide 7α for 3.5 hrs, incubated in a complete media for a duration of two doubling times, and assessed for viability by using a CCK-8 colorimetric assay (Dojindo Molecular Technologies, Inc.).
as §1

[9] = tested on: Hs 766T pancreatic cancer cells
Description: as §1

[10] = tested on: M059J glioma cancer cells
Description: (§2) Pierce Protein Transfection reagent (Thermo Scientific, 89850) was used to deliver peptide to the cultured cells.
M059J glioma cancer cells (ATCC #CRL-2366) were transfected with 1.25-10 μM peptide 7α for 3.5 hrs, incubated in a complete media for a duration of two doubling times, and assessed for viability by using a CCK-8 colorimetric assay (Dojindo Molecular Technologies, Inc.).
M059J glioma cancer cells (ATCC #CRL-2366) were transfected with 1.25-10 μM peptide 7MM for 3.5 hrs, incubated in a complete media for a duration of two doubling times, and assessed for viability by using a CCK-8 colorimetric assay (Dojindo Molecular Technologies, Inc.).
as §1

[11] = tested on: DU145 prostate cancer cells
Description: DU145 prostate cancer cells (ATCC #HTB-81) were transfected with 1.25-10 μM peptide 7α for 3.5 hrs, incubated in a complete media for a duration of two doubling times, and assessed for viability by using a CCK-8 colorimetric assay (Dojindo Molecular Technologies, Inc.).
DU145 prostate cancer cells (ATCC #HTB-81) were transfected with 1.25-10 μM peptide 7MM for 3.5 hrs, incubated in a complete media for a duration of two doubling times, and assessed for viability by using a CCK-8 colorimetric assay (Dojindo Molecular Technologies, Inc.).
as §1

[12] = tested on: hTERT-HPNE immortalized normal pancreatic cells
Description: as §1

[13] = tested on: BT-549 breast cancer cells
Description: The effect of Peptides 7M and 7MM on BT-549 breast cancer cells (ATCC #HTB-122) was studied. Pierce Protein Transfection reagent (Thermo Scientific, 89850) was used to deliver peptide to the cultured cells. BT-549 breast cancer cells were transfected with 0.625-20 μM Peptide 7M or 1.25-10 μM Peptide 7MM for 3.5 hrs, incubated in a complete media for a duration of two doubling times (96 hours), and assessed for viability by using a CCK-8 colorimetric assay.
as §1

[14] = tested on: HMEC primary mammary epithelial normal cells
Description: HMEC mammary epithelial cells (ATCC #PCS-600-010) were transfected with 1.25-20 μM peptide 7α for 3.5 hrs, incubated in a complete media for a duration of two doubling times, and assessed for viability by using a CCK-8 colorimetric assay (Dojindo Molecular Technologies, Inc.).
HMEC primary normal epithelial breast cells (ATCC #PCS-600-010) were transfected with 1.25-10 μM peptide 7MM for 3.5 hrs, incubated in a complete media for a duration of two doubling times, and assessed for viability by using a CCK-8 colorimetric assay (Dojindo Molecular Technologies, Inc.).
as §1

[15] = transfected 1.25-10 μM for 3.5 hrs, two doubling times, CCK-8
[16] = transfected 1.25-20 μM for 3.5 hrs, two doubling times, CCK-8

Description for A549 lung cancer cells: as §1
Description for H596 lung cancer cells: as §1
Description for HepG2 liver cancer cells: as §2, §1

- IC50 (A549 lung cancer cells): 16.5 µM
- IC50 [2]: 14.5 µM
- IC50 (H596 lung cancer cells): 7.5 µM
- inhibition of CMG helicase in vitro (chromatin RPA Western blot) (CMG helicase): inhibit CMG helicase in vitro
- IC50 [5]: 9.6 µM
- IC50 (HepG2 liver cancer cells; 96 h): 3.7 µM
- IC50 [6]: 4.4 µM
- IC50 [7]: 9.5 µM
- IC50 ([8]; 48 h): 6.4 µM
- IC50 [9]: 7.4 µM
- IC50 ([10]; 48 h): 7.1 µM
- IC50 [11]: 10.3 µM
- IC50 ([13]; 96 h): 4.6 µM
Sequence: DLVISFQLMLCVLDYFIK [7α, DLVISFQLMLCVLDYFIK]
- effect on viability of A549 lung cancer cells (A549 lung cancer cells; [15]): decreases viability
- IC50 [1]: 113 µM
- effect on viability of SVG p12 normal brain cells [1, 16]: does not affect viability
- effect on viability of U-2 OS osteosarcoma cancer cells [2, 15]: decreases viability
- effect on viability of H596 lung cancer cells (H596 lung cancer cells; [15]): decreases viability
- IC50 [3]: 225 µM
- effect on viability of HLF normal primary lung fibroblasts [3, 15]: does not affect viability
- IC50 [4]: 119 µM
- effect on viability of THLE-3 normal liver cells [4, 15]: does not affect viability
- effect on viability of PC3 prostate cancer cells [5, 15]: decreases viability
- effect on viability of HepG2 liver cancer cells (HepG2 liver cancer cells; transfected 1.25-5 μM for 3.5 hrs, two doubling times, CCK-8): decreases viability
- effect on viability of HT1080 fibrosarcoma cancer cells [6, 15]: decreases viability
- effect on viability of HCT-116 colorectal cancer cells [7, 15]: decreases viability
- effect on viability of PANC-1 pancreatic cancer cells [8, 15]: decreases viability
- effect on viability of Hs 766T pancreatic cancer cells [9, 15]: decreases viability
- effect on viability of M059J glioma cells [10, 15]: decreases viability
- effect on viability of DU145 prostate cancer cells [11, 15]: decreases viability
- IC50 [12]: 366 µM
- effect on viability of hTERT-HPNE normal pancreatic cells [12, 15]: does not affect viability
- effect on viability of BT-549 breast cancer cells [13, 15]: decreases viability
- IC50 [14]: 115 µM
- effect on viability of HMEC normal mammary epithelial cells [14, 16]: does not affect viability
